Results: the NIST ThermoML archive (doi:10.1016/j.jct.2018.08.036)
Several values for one entry are separate records, joined by “and”; a condition that tells them apart may be missing. Equal entries are not always repeated. Numbers after ± are expanded uncertainties.

Legend:
[1] = 100 kPa, Liquid; for speed of sound: Frequency=3 MHz, Single path-length method; for mass density: Vibrating tube method; for viscosity: Falling or rolling sphere viscometry
[2] = refractive index (Na D-line) (dimensionless); settings: 100 kPa, Liquid, Standard Abbe refractometry
[3] = xn = mol fraction of the nth substance listed; settings: 100 kPa, Liquid, x1 = 1; for viscosity: Falling or rolling sphere viscometry; for speed of sound: Frequency=3 MHz, Single path-length method; for mass density: Vibrating tube method
[4] = refractive index (Na D-line) (dimensionless); xn = mol fraction of the nth substance listed; settings: 100 kPa, Liquid, Standard Abbe refractometry, x1 = 1

Row | SMILES | speed of sound ([1]; 293.15 K) [m/s] | mass density ([1]; 293.15 K) [kg/m3] | viscosity ([1]; 298.15 K) | speed of sound ([1]; 298.15 K) | mass density ([1]; 298.15 K) | viscosity ([1]; 308.15 K) | speed of sound ([1]; 308.15 K) | mass density ([1]; 308.15 K) | viscosity ([1]; 318.15 K) | speed of sound ([1]; 318.15 K) | mass density ([1]; 318.15 K) | speed of sound ([1]; 323.15 K) [m/s] | mass density ([1]; 323.15 K) [kg/m3] | refractive index ([2]; 293.15 K) | refractive index ([2]; 298.15 K) | refractive index ([2]; 308.15 K) | refractive index ([2]; 318.15 K) | refractive index ([2]; 323.15 K) | viscosity ([1]; 293.15 K) [mPa·s] | viscosity ([1]; 303.15 K) [mPa·s] | also measured
1 | CCC(C)c1ccccc1 (centres undefined) [(1-methylpropyl)benzene] | 1333.8 ± 1 | 861.95 ± 0.42 | 0.912 ± 0.021 mPa·s | 1313.8 ± 1 m/s | 857.89 ± 0.42 kg/m3 | 0.796 ± 0.021 mPa·s | 1274.5 ± 1 m/s | 849.78 ± 0.42 kg/m3 | 0.707 ± 0.021 mPa·s | 1235.7 ± 1 m/s | 841.64 ± 0.42 kg/m3 | 1216.1 ± 1 | 837.48 ± 0.42 | 1.49 ± 0.0004 | 1.4876 ± 0.0004 | 1.4827 ± 0.0004 | 1.4778 ± 0.0004 | 1.4753 ± 0.0004 |  |  | 
2 | CCCCCCCCCCCCCCCC [hexadecane] | 1357.5 ± 1 | 773.33 ± 0.42 | 2.968 ± 0.064 mPa·s and 3.035 ± 0.065 mPa·s | 1338.6 ± 1 m/s and 1338.5 ± 1 m/s | 769.86 ± 0.42 kg/m3 and 769.81 ± 0.42 kg/m3 | 2.389 ± 0.063 mPa·s and 2.439 ± 0.063 mPa·s | 1301.3 ± 1 m/s and 1301.2 ± 1 m/s | 762.94 ± 0.42 kg/m3 and 762.89 ± 0.42 kg/m3 | 1.971 ± 0.062 mPa·s and 2.008 ± 0.062 mPa·s | 1264.6 ± 1 m/s and 1264.7 ± 1 m/s | 755.99 ± 0.42 kg/m3 and 755.98 ± 0.42 kg/m3 | 1246.6 ± 1 | 752.58 ± 0.42 | 1.4345 ± 0.0004 | 1.4324 ± 0.0004 | 1.4283 ± 0.0004 | 1.4241 ± 0.0004 | 1.422 ± 0.0004 | 3.341 ± 0.065 | 2.656 ± 0.064 | speed of sound ([1]; 303.15 K): 1319.9 ± 1 m/s; mass density ([1]; 303.15 K): 766.4 ± 0.42 kg/m3; viscosity ([1]; 313.15 K): 2.164 ± 0.062 mPa·s; speed of sound ([1]; 313.15 K): 1282.9 ± 1 m/s; mass density ([1]; 313.15 K): 759.48 ± 0.42 kg/m3; viscosity ([1]; 323.15 K): 1.8 ± 0.062 mPa·s; refractive index ([2]; 303.15 K): 1.4304 ± 0.0004; refractive index ([2]; 313.15 K): 1.4261 ± 0.0004
3 | CCCCCCCCCCCCCCCC [hexadecane] + CCC(C)c1ccccc1 |  |  |  |  |  |  |  |  |  |  |  |  |  |  |  |  |  |  |  |  | viscosity ([3]; 298.15 K): 3.035 ± 0.064 mPa·s; speed of sound ([3]; 298.15 K): 1338.5 ± 1 m/s; mass density ([3]; 298.15 K): 769.81 ± 0.42 kg/m3; viscosity ([3]; 308.15 K): 2.439 ± 0.063 mPa·s; speed of sound ([3]; 308.15 K): 1301.2 ± 1 m/s; mass density ([3]; 308.15 K): 762.89 ± 0.42 kg/m3; viscosity ([3]; 318.15 K): 2.008 ± 0.062 mPa·s; speed of sound ([3]; 318.15 K): 1264.7 ± 1 m/s; mass density ([3]; 318.15 K): 755.98 ± 0.42 kg/m3; refractive index ([4]; 298.15 K): 1.4324 ± 0.0004; refractive index ([4]; 308.15 K): 1.4283 ± 0.0004; refractive index ([4]; 318.15 K): 1.4241 ± 0.0004
4 | CCCCCCCCCCCCCCCC [hexadecane] + CCCc1ccccc1 |  |  |  |  |  |  |  |  |  |  |  |  |  |  |  |  |  |  |  |  | viscosity ([3]; 298.15 K): 2.968 ± 0.064 mPa·s; speed of sound ([3]; 298.15 K): 1338.6 ± 1 m/s; mass density ([3]; 298.15 K): 769.86 ± 0.42 kg/m3; viscosity ([3]; 308.15 K): 2.389 ± 0.063 mPa·s; speed of sound ([3]; 308.15 K): 1301.3 ± 1 m/s; mass density ([3]; 308.15 K): 762.94 ± 0.42 kg/m3; viscosity ([3]; 318.15 K): 1.971 ± 0.062 mPa·s; speed of sound ([3]; 318.15 K): 1264.6 ± 1 m/s; mass density ([3]; 318.15 K): 755.99 ± 0.42 kg/m3; refractive index ([4]; 298.15 K): 1.4324 ± 0.0004; refractive index ([4]; 308.15 K): 1.4283 ± 0.0004; refractive index ([4]; 318.15 K): 1.4241 ± 0.0004
5 | CCCc1ccccc1 [propylbenzene] | 1341.5 ± 0.6 | 862.72 ± 0.22 | 0.792 ± 0.021 mPa·s | 1320.6 ± 0.6 m/s | 858.45 ± 0.22 kg/m3 | 0.699 ± 0.021 mPa·s | 1280.6 ± 0.6 m/s | 850.01 ± 0.22 kg/m3 | 0.626 ± 0.021 mPa·s | 1241 ± 0.6 m/s | 841.53 ± 0.22 kg/m3 | 1221.5 ± 0.6 | 837.31 ± 0.22 | 1.4921 ± 0.0004 | 1.4896 ± 0.0004 | 1.4844 ± 0.0004 | 1.4792 ± 0.0004 | 1.4766 ± 0.0004 | 0.846 ± 0.021 | 0.742 ± 0.021 | viscosity ([1]; 288.15 K): 0.924 ± 0.021 mPa·s; speed of sound ([1]; 303.15 K): 1300.4 ± 0.6 m/s; mass density ([1]; 303.15 K): 854.28 ± 0.22 kg/m3; viscosity ([1]; 313.15 K): 0.655 ± 0.021 mPa·s; speed of sound ([1]; 313.15 K): 1260.9 ± 0.6 m/s; mass density ([1]; 313.15 K): 845.81 ± 0.22 kg/m3; viscosity ([1]; 323.15 K): 0.601 ± 0.02 mPa·s; refractive index ([2]; 303.15 K): 1.487 ± 0.0004; refractive index ([2]; 313.15 K): 1.4818 ± 0.0004
